Reference: US20260315596A1, “HYBRID NANOPARTICLES AS MULTIFUNCTIONAL PLATFORM FOR BRAIN TUMOR THERAPY” (UNIVERSIDADE DE COIMBRA, priority 2022, published 2026)
Where two headings read alike, the source gives them in different places.

Columns and labels:
[1] = Serum biomarkers for toxicity evaluation in glioblastoma-bearing mice; format: in vivo, Swiss nude mice; conditions: free drug in solution
Protocol: After reaching the endpoint, animals were euthanized. Whole blood samples were collected from mice immediately to heparinized tubes. The supernatant (serum) of blood obtained after centrifugation (2880×g for 10 min at 4° C.) was used to determine the levels of physiological biomarkers such as aspartate aminotransferase (AST), alanine aminotransferase (ALT), alkaline phosphatase (ALP), gamma glutamyl transpeptidase (GGT), creatinine kinase (CK), and urea (U) to investigate the effects of drug, nanoparticles and photothermal treatment.

[2] = Safety and tolerability in mice; set-up: species or system Swiss nude mice; conditions: mouse, in vivo
Protocol: The dose used for temozolomide was 30 mg/kg (i.p administration) and 50 mg/kg (oral administration), as the upper threshold tolerated by animals. The treatment started 21 days after U87 cell implantation.
To understand the drug effect: At 21 days post-tumor cell injection, mice were randomly divided into six groups and treated intraperitoneally for two cycles of five consecutive days. […] Similarly, to the safety evaluation test, all animals were closely observed during the immediate post injection period. Mice physical appearance (body weight and coat condition), body function (food intake), presence of loose stools, diarrhea or blood in diarrhea and behavior (handling, aggression, abnormal gait and posture and reluctance to move) were also monitored throughout the study. Pre-determined human endpoints for animal euthanasia were also established, specifically, a weight loss greater than 20% of initial body weight, a temperature drop (<35° C.), and a tumor size higher than 50 mm^3.

[3] = test system: orthotopic U87 human GB tumor; experiment: In vivo antitumor efficacy in orthotopic U87 glioblastoma model; set-up: species or system human tumor in Swiss nude mice
Protocol: Regarding orthotopic U87 human GB tumor model, before the surgical procedure, fourteen nude mice were weighted, given buprenorphine (0.1 mg/Kg) intraperitoneally and placed on a stereotactic frame. To maintain anesthesia and sedation, the mice were anesthetized for 30 min with 4% isoflurane gas, mixed with medical oxygen at a rate of 1 L/min. Vital signs such as respiratory frequency and body temperature were monitored continuously. After the identification of the injection site, at the Cartesian coordinates (x, y, z)=(2.1, 0.5, −3) in relation to bregma, approximately 36 000 U87 cells were injected in the striatum of the frontal cortex of the right hemisphere of the brain, using a Hamilton syringe. In every mouse, the presence, location and volume of the tumors were assessed by Magnetic Resonance Imaging (MRI) weekly. MRI was performed using a 9.4T Bruker BioSpec 94/20USR system (Bruker, Germany) after anesthetizing mice with isoflurane (1 L/min, induction: 4% isoflurane; maintenance: 2% isoflurane). Vital signs, in particular, respiratory frequency and body temperature, were monitored continuously. For structural analysis, T2-weighted images were acquired in sagittal, coronal and axial planes, using a rapid acquisition with relaxation enhancement sequence (T2 Turbo RARE). Tumor images were manually segmented in the 3D Slicer software for 3D reconstruction, in order to calculate tumor volume.
Similarly, to the safety evaluation test, all animals were closely observed during the immediate post injection period. Mice physical appearance (body weight and coat condition), body function (food intake), presence of loose stools, diarrhea or blood in diarrhea and behavior (handling, aggression, abnormal gait and posture and reluctance to move) were also monitored throughout the study. Pre-determined human endpoints for animal euthanasia were also established, specifically, a weight loss greater than 20% of initial body weight, a temperature drop (<35° C.), and a tumor size higher than 50 mm^3. […]
The tumor growth delayed (TGD), which concerns the evaluation of tumor treatment modalities, was calculated according to
where, Dtreatment and Dcontrol correspond to the average doubling times of the treated and control tumors, respectively.
The tumor growth inhibition (TGI), which measures the tumor size between treated and control groups at specific time points was calculated according to
[formula] • where ΔT (=T−T0) represents the change in tumor size (volume) for the treated animals, while ΔC(=C−C0) represents the change in tumor size (volume) for the control animals. By comparing these values, the degree of tumor growth inhibition can be determined.

[4] = Pharmacokinetics and biodistribution in mice after i.p. administration; format: in vivo, Swiss nude mice; set-up: AUCinf: concentration or dose not given beside the values
Protocol: Adult male and female Swiss Nu/Nu and Swiss Nu/+ mice, aged between 10-14 weeks and weighting 22-30 g, were purchased from Charles River Laboratories (Lyon, France) and maintained in local animal facilities under controlled conditions (12 hours light/dark cycle, at 20±2° C. and 50±5% of relative humidity), with free access to standard diet and water. All animal experiments were conducted in agreement with the international regulations of the European Union.
A solution containing CXB in PEG 400: NaCl 0.9% (pH=7.4) (2:1, V/V) was used as control. Thereafter, mice were sacrificed by decapitation at predetermined post-dosing time points. Blood samples were collected to heparinised tubes and centrifuged at 2880 g for 10 min at 4° C. Plasma supernatant was collected and frozen at −80° C. until analysis. […] Brain and liver tissues were homogenized with an H2O-acetonitrile (1:1, V/V) solution (4 mL per g of tissue) using a Thomas® Teflon pestle tissue homogenizer and centrifuged at 4 150 g for 15 min at 4° C. In parallel, spleen tissues were homogenized with 1 ml of the same solution using a high-speed stirrer (Ultra-Turrax X1020, Ystral GmbH, Dottingen, Germany) and then, centrifuged at 12 045 g for 5 min at 4° C. All supernatants were collected and stored at −80° C. until analysis using a previously validated HPLC method. […]

U87 cells = experiment: Resazurin cytotoxicity assay in U87 / glioma cells; format: cell-based, human; conditions: for IC50: all glioma cells, 24 hours and 72 hours
Protocol: In vitro toxicity studies were performed as described in Example 4. To assess the potential cytotoxicity of both loaded and unloaded NPs, the resazurin assay was conducted in HBMEC and U87 cells. The sensitivity of GB cells to free CXB and TMZ was assessed following a treatment with a drug solution in the range 7-1700 μM and 5-2500 μM, respectively.
The cytotoxicity effect of AuNRs^c(RGDfK) and HNPs/HNPs^Tf against U87 cells. Regarding cell viability, the U87 cells were cultured in DMEM/F-12 medium, supplemented with 10% (v/v) FBS, 1% (v/v) penicillin-streptomycin solution and sodium bicarbonate. U87 were maintained at 37° C. in a humidified atmosphere containing CO2 (5%). The resazurin assay was used to determine the cytotoxicity of CXB, AuNRs^c(RGDfK) and HNPs. Briefly, 2000 cells per well were seeded in a 96 well plate and incubated for 24 hours or 72 hours after the medium was replaced with increasing concentrations of CXB or AuNRs^c(RGDfK) or HNPs/HNPS^Tf. Subsequently, the medium was removed, and the cell viability determined. For this purpose, 100 μl of 10% (w/v) resazurin solution in DMEM/F 12 was added to the cells and incubated for approximately 2 hours, at 37° C. The enzymatic reduction of resazurin to resorufin was analyzed by UV/Vis spectrophotometry at 570 nm and 600 nm. Cell viability was assessed as described above.

glioblastoma = conditions: cited from earlier work
[5] = i.p., no irradiation (TMZ 30 mg/kg, CXB 5 mg/kg, nanoparticles 20 mg/kg)
[6] = celecoxib, i.p. mice, plasma, 20 mg/kg
[7] = mouse, ip, 20 mg/kg, celecoxib, i.p. mice, brain
[8] = mouse, ip, 20 mg/kg, celecoxib, i.p. mice, kidney
[9] = mouse, ip, 20 mg/kg, celecoxib, i.p. mice, liver
[10] = mouse, ip, 20 mg/kg, celecoxib, i.p. mice, plasma
[11] = mouse, ip, 20 mg/kg, celecoxib, i.p. mice, spleen
[12] = i.p., no irradiation (TMZ 30 mg/kg, CXB 5 mg/kg, nanoparticles 20 mg/kg), listed as temozolomide
[13] = oral, 50 mg/kg, listed as temozolomide

In the case of Cc1ccc(-c2cc(C(F)(F)F)nn2-c2ccc(S(N)(=O)=O)cc2)cc1 [CXB, celecoxib], the “CK increase over saline group” value [1] is reported as 1.17 fold, the MTD ([2]; ip, celecoxib in solution, i.p., read-out: dose above which toxicity was exhibited) is reported as over 5 mg/kg and the “mean survival time (MST)” value ([3]; i.p., no irradiation (CXB 5 mg/kg, nanoparticles 20 mg/kg)) is reported as 48 days. For the same compound, the “% Tumor Growth Delay” value [3, 5] was 15 ± 5%, the “% Tumor Growth Inhibition” value [3, 5] was 13 ± 6% and the Median survival [3, 5] was 48 days. For the same compound, the “Survivals at 56 days” value [3, 5] was 1/6, the “Survivals at 91 days” value [3, 5] was 0/6 and the “inhibition of growth of GB cells in vivo” value ([3]; i.p., in words) was “the effect was not significant”. For the same compound, the AUC0-last ([4]; celecoxib, i.p. mice, brain) was 36.7 µg·h/g, the AUCextrap ([4]; celecoxib, i.p. mice, brain) was 7.08% and the AUCinf ([4]; celecoxib, i.p. mice, brain) was 39.5 µg·h/g. The AUC0-last ([4]; celecoxib, i.p. mice, kidney) was 35.3 µg·h/g, the AUCextrap ([4]; celecoxib, i.p. mice, kidney) was 16.3% and the AUCinf ([4]; celecoxib, i.p. mice, kidney) was 42.2 µg·h/g. For the same compound, the AUC0-last ([4]; celecoxib, i.p. mice, liver) was 27.7 µg·h/g, the AUCextrap ([4]; celecoxib, i.p. mice, liver) was 30.4% and the AUCinf ([4]; celecoxib, i.p. mice, liver) was 39.8 µg·h/g. The AUCextrap ([4]; celecoxib, i.p. mice, plasma) was 13.0%, the AUC0-last [4, 6] was 28100 ng·h/mL and the Cmax [4, 6] was 9100 ng/mL. For the same compound, the AUC0-last ([4]; celecoxib, i.p. mice, spleen) was 73.2 µg·h/g, the AUCextrap ([4]; celecoxib, i.p. mice, spleen) was 42.0% and the AUCinf ([4]; celecoxib, i.p. mice, spleen) was 126.2 µg·h/g. For the same compound, the Cmax ([4]; mouse, brain, ip, 20 mg/kg, celecoxib, i.p. mice, brain, read-out: Cmax) was 20600 ng/g, the AUC(0-t) ([4]; mouse, ip, 20 mg/kg, plasma) was 28100 ng·h/mL and the MRT [4, 7] was 2 h. It also gave a Tmax [4, 7] of 1 h, a half-life [4, 7] of 1.4 h and an MRT [4, 8] of 3.05 h. It also gave a Tmax [4, 8] of 2 h, a half-life [4, 8] of 2 h and an MRT [4, 9] of 4.6 h. For the same compound, the Tmax [4, 9] was 0.5 h, the half-life [4, 9] was 2.8 h and the AUC(0-inf) [4, 10] was 32300 ng·h/mL. The MRT [4, 10] was 2.9 h, the Tmax [4, 10] was 1 h and the half-life [4, 10] was 1.9 h. For the same compound, the MRT [4, 11] was 6.47 h, the Tmax [4, 11] was 1 h and the half-life [4, 11] was 4.07 h. For the same compound, the Cmax ([4]; mouse, kidney, ip, 20 mg/kg, celecoxib, i.p. mice, kidney, read-out: Cmax) was 15600 ng/g, the Cmax ([4]; mouse, liver, ip, 20 mg/kg, celecoxib, i.p. mice, liver, read-out: Cmax) was 10600 ng/g and the Cmax ([4]; mouse, plasma, ip, 20 mg/kg, celecoxib, i.p. mice, plasma, read-out: Cmax) was 9090 ng/mL. The Cmax ([4]; mouse, spleen, ip, 20 mg/kg, celecoxib, i.p. mice, spleen, read-out: Cmax) was 22400 ng/g, the “effect on cellular proliferation” value (U87 cells; free CXB, after 24 hours and 72 hours) was “able to impair cellular proliferation” and the IC50 (U87 cells; free CXB) was under 400 µM.

For Cn1nnc2c(C(N)=O)ncn2c1=O [TMZ, temozolomide], the “CK increase over saline group” value [1] was 1.32 fold, the MTD ([2]; ip, i.p. administration, read-out: upper threshold dose tolerated by animals) was 30 mg/kg and the MTD ([2]; oral administration, read-out: upper threshold dose tolerated by animals) was 50 mg/kg. For the same compound, the “animals that survived and prevented tumor recurrence” value ([3]; i.p. 30 mg/kg, out of 6 animals, 91 days) was 4, the “% Tumor Growth Delay” value [3, 5] was 75 ± 21% and the “% Tumor Growth Inhibition” value [3, 5] was 66 ± 33%. The Median survival [3, 5] was 91 days, the “Survivals at 56 days” value [3, 5] was 6/6 and the “Survivals at 91 days” value [3, 5] was 4/6. The “% Tumor Growth Delay” value [3, 12] was 75%, the “% Tumor Growth Inhibition” value [3, 12] was 66% and the “% Tumor Growth Delay” value ([3]; oral, 50 mg/kg) was 54 ± 11%. For the same compound, the “% Tumor Growth Inhibition” value ([3]; oral, 50 mg/kg) was 42 ± 14%, the Median survival ([3]; oral, 50 mg/kg) was 70 days and the “Survivals at 56 days” value ([3]; oral, 50 mg/kg) was 1/6. For the same compound, the “Survivals at 91 days” value ([3]; oral, 50 mg/kg) was 1/6, the “animals that survived without tumor recurrence” value ([3]; oral, 50 mg/kg) was “only one animal survived” and the “mean survival time (MST)” value ([3]; oral, 50 mg/kg) was 70 days. The “% Tumor Growth Delay” value [3, 13] was 54%, the “% Tumor Growth Inhibition” value [3, 13] was 42% and the “median OS” value (glioblastoma; combination with radiotherapy vs. 12.1 months radiotherapy alone, P<0.001) was 14.6 months. For the same compound, the “median survival time in patients” value (glioblastoma; comparative studies of several chemotherapeutic agents, in words) was “highest median survival time in patients” and the IC50 (U87 cells; Homo sapiens, U-87 MG, free TMZ) was 800 µM.
